Reference: article PMC4823954, “From fighting depression to conquering tumors: a novel tricyclic thiazepine compound as a tubulin polymerization inhibitor” (Cell Death & Disease, 2016)

What was measured:
Assay in all cases: KINOMEscan
Assay type in all cases: binding
Details in all cases: read-out: % Ctrl
ACVR1 = target: T1, ACVR1 (Homo sapiens, UniProt Q04771)
T1 construct: purchased DiscoveRx KINOMEscan
Method in brief: (§1)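 Competition binding panel of 442 non-mutant kinases: test compound at 5 and 10 μM competed with an active-site-directed ligand for 1 h with shaking. Bound kinase was eluted with 0.5 μM ligand and quantified by qPCR; %Ctrl = (compound − positive control)/(DMSO − positive control) × 100, lower meaning tighter binding.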

ADCK3 = target: T2, ADCK3 (Homo sapiens, UniProt Q8NI60)
T2 construct: purchased DiscoveRx KINOMEscan
Method in brief: as §1

ASK1 = target: T3, ASK1 (Homo sapiens, UniProt Q99683)
T3 construct: purchased DiscoveRx KINOMEscan
Method in brief: as §1

CHEK1 = target: T4, CHEK1 (Homo sapiens, UniProt O14757)
T4 construct: purchased DiscoveRx KINOMEscan
T4 sequence (O14757 whole entry): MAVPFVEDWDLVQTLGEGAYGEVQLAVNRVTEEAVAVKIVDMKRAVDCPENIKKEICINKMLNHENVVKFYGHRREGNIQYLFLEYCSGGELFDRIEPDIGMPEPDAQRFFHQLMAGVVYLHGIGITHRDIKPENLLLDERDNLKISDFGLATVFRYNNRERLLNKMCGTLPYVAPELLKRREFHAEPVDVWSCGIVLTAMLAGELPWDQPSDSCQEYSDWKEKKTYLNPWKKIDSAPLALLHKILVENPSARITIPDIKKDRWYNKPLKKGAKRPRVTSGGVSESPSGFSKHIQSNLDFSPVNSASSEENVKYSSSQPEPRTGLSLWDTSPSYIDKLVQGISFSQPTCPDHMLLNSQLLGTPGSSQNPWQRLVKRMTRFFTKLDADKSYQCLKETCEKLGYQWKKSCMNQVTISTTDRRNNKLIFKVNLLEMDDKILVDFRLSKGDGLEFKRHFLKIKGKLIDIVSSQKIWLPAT
Method in brief: as §1

CSNK1D = target: T5, CSNK1D (Homo sapiens, UniProt P48730)
T5 construct: purchased DiscoveRx KINOMEscan
Method in brief: as §1

CSNK1E = target: T6, CSNK1E (Homo sapiens, UniProt P49674)
T6 construct: purchased DiscoveRx KINOMEscan
Method in brief: as §1

CSNK1G2 = target: T7, CSNK1G2 (Homo sapiens, UniProt P78368)
T7 construct: purchased DiscoveRx KINOMEscan
T7 sequence (P78368 whole entry): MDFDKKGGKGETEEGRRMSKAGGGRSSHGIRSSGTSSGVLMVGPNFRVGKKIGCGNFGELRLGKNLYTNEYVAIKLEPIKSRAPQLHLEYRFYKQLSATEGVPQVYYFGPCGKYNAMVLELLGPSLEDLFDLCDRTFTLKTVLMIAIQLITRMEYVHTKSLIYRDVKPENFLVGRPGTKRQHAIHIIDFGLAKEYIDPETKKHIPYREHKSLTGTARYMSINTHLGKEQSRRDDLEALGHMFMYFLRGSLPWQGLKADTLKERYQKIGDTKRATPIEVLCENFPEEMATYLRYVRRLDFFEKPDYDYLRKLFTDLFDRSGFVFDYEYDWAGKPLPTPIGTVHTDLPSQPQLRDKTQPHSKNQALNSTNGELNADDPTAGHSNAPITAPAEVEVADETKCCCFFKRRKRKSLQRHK
Method in brief: as §1

DAPK3 = target: T8, DAPK3 (Homo sapiens, UniProt O43293)
T8 construct: purchased DiscoveRx KINOMEscan
Method in brief: as §1

EPHA1 = target: T9, EPHA1 (Homo sapiens, UniProt P21709)
T9 construct: purchased DiscoveRx KINOMEscan
Method in brief: as §1

ERBB2 = target: T10, ERBB2 (Homo sapiens, UniProt P04626)
T10 construct: purchased DiscoveRx KINOMEscan
Method in brief: as §1

ERK3 = target: T11, ERK3 (Homo sapiens, UniProt Q16659)
T11 construct: purchased DiscoveRx KINOMEscan
T11 sequence (Q16659 whole entry): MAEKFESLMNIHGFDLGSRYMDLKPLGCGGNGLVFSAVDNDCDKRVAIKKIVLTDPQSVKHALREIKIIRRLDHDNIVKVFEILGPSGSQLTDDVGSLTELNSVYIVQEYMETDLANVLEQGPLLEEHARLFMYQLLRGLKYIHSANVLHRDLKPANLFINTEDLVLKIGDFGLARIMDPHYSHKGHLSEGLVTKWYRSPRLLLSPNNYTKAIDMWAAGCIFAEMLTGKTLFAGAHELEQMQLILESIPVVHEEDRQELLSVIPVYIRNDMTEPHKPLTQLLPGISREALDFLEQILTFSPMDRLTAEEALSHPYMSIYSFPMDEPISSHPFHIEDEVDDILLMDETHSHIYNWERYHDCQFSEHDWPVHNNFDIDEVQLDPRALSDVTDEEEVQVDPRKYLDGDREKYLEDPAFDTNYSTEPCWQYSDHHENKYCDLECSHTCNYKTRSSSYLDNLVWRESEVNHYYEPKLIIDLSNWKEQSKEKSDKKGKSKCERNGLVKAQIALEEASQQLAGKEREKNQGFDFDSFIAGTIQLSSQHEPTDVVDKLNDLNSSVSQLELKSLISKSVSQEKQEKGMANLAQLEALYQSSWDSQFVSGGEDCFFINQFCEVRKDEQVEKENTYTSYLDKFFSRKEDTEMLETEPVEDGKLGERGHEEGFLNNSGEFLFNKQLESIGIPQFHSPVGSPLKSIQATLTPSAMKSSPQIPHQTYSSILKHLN
Method in brief: as §1

FGFR4 = target: T12, FGFR4 (Homo sapiens, UniProt P22455)
T12 construct: purchased DiscoveRx KINOMEscan
Method in brief: as §1

HPK1 = target: T13, HPK1 (Homo sapiens, UniProt Q92918)
T13 construct: purchased DiscoveRx KINOMEscan
T13 sequence (Q92918 whole entry): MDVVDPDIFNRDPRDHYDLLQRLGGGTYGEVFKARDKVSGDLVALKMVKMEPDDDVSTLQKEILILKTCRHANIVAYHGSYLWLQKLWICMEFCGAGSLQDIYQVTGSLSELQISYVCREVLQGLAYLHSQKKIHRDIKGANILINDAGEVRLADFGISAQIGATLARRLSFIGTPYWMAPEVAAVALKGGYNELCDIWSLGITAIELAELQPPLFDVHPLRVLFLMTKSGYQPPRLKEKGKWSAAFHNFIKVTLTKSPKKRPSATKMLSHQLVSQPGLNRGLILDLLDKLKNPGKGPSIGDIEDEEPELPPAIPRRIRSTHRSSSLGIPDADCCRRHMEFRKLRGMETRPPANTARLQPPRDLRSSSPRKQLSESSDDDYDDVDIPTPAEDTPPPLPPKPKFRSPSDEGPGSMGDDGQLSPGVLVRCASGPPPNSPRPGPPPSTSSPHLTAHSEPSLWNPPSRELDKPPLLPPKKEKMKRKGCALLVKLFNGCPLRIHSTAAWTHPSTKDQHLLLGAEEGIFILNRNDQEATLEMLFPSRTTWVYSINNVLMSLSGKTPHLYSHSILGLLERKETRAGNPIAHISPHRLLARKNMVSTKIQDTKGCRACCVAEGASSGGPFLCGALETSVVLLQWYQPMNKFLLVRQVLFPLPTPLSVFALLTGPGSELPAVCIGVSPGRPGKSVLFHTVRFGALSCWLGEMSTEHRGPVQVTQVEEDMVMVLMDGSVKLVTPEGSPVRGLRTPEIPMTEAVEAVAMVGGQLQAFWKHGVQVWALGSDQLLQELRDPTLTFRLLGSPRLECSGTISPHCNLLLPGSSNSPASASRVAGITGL
Method in brief: as §1

LRRK2 = target: T14, LRRK2 (Homo sapiens, UniProt Q5S007)
T14 construct: purchased DiscoveRx KINOMEscan
Method in brief: as §1

MEK3 = target: T15, MEK3 (Homo sapiens, UniProt P46734)
T15 construct: purchased DiscoveRx KINOMEscan
T15 sequence (P46734 whole entry): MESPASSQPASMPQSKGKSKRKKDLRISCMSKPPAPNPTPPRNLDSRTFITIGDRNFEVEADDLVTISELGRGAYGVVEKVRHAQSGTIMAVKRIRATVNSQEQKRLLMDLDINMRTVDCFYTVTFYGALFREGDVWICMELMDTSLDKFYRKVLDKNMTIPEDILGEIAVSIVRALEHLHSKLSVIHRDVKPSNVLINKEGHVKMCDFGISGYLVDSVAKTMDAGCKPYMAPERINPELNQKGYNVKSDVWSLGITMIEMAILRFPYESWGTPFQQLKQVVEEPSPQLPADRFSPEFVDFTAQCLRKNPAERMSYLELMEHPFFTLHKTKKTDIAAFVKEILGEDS
Method in brief: as §1

MLK2 = target: T16, MLK2 (Homo sapiens, UniProt Q02779)
T16 construct: purchased DiscoveRx KINOMEscan
Method in brief: as §1

MRCKB = target: T17, MRCKB (Homo sapiens, UniProt Q9Y5S2)
T17 construct: purchased DiscoveRx KINOMEscan
Method in brief: as §1

MST2 = target: T18, MST2 (Homo sapiens, UniProt Q13188)
T18 construct: purchased DiscoveRx KINOMEscan
T18 sequence (Q13188 whole entry): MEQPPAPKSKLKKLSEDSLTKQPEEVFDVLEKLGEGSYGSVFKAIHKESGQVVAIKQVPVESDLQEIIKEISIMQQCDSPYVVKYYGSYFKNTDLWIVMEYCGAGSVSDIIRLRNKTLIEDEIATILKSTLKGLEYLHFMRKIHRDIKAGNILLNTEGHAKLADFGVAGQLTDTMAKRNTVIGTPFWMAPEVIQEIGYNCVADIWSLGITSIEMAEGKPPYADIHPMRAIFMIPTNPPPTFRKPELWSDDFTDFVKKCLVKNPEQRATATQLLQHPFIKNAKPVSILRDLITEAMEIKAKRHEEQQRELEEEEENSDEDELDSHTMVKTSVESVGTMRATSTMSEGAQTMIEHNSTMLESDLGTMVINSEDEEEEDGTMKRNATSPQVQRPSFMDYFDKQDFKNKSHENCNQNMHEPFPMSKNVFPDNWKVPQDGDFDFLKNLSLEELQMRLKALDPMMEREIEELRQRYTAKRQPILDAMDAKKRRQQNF
Method in brief: as §1

NEK1 = target: T19, NEK1 (Homo sapiens, UniProt Q96PY6)
T19 construct: purchased DiscoveRx KINOMEscan
Method in brief: as §1

PIK3CA(E542K) = target: T20, PIK3CA(E542K) (Homo sapiens, UniProt P42336, E542K)
T20 construct: purchased DiscoveRx KINOMEscan

PIP5K1C = target: T21, PIP5K1C (Homo sapiens, UniProt O60331)
T21 construct: purchased DiscoveRx KINOMEscan
T21 sequence (O60331 whole entry): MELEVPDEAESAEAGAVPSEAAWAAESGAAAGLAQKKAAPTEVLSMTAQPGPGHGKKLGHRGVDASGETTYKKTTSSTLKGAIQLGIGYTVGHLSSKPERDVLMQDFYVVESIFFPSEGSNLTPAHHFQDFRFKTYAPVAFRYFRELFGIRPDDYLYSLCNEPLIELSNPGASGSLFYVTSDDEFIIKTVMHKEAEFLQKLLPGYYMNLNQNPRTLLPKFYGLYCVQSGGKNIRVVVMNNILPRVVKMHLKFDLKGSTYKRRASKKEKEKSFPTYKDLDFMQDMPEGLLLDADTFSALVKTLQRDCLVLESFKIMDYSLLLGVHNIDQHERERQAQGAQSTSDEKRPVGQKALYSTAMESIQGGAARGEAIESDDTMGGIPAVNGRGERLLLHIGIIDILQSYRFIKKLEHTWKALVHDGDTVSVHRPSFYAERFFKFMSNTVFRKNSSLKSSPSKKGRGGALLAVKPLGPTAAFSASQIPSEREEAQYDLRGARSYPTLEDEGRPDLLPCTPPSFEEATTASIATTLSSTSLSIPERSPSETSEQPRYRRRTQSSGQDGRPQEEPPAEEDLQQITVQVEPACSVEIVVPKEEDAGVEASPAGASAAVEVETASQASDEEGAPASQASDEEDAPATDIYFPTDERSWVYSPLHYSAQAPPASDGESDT
Method in brief: as §1

PLK3 = target: T22, PLK3 (Homo sapiens, UniProt Q9H4B4)
T22 construct: purchased DiscoveRx KINOMEscan
Method in brief: as §1

[1] = target: T23, RSK1(Kin.Dom.1-N-terminal) (Homo sapiens, UniProt Q15418)
T23 construct: RSK1(Kin.Dom.1-N-terminal); purchased DiscoveRx KINOMEscan
Method in brief: as §1

[2] = target: T24, RSK3(Kin.Dom.1-N-terminal) (Homo sapiens, UniProt Q15349)
T24 construct: RSK3(Kin.Dom.1-N-terminal); purchased DiscoveRx KINOMEscan
Method in brief: as §1

TAK1 = target: T25, TAK1 (Homo sapiens, UniProt O43318)
T25 construct: purchased DiscoveRx KINOMEscan
Method in brief: as §1

TESK1 = target: T26, TESK1 (Homo sapiens, UniProt Q15569)
T26 construct: purchased DiscoveRx KINOMEscan
Method in brief: as §1

VEGFR2 = target: T27, VEGFR2 (Homo sapiens, UniProt P35968)
T27 construct: purchased DiscoveRx KINOMEscan
Method in brief: as §1

VRK2 = target: T28, VRK2 (Homo sapiens, UniProt Q86Y07)
T28 construct: purchased DiscoveRx KINOMEscan
Method in brief: as §1

YANK3 = target: T29, YANK3 (Homo sapiens, UniProt Q86UX6)
T29 construct: purchased DiscoveRx KINOMEscan
T29 sequence (Q86UX6 whole entry): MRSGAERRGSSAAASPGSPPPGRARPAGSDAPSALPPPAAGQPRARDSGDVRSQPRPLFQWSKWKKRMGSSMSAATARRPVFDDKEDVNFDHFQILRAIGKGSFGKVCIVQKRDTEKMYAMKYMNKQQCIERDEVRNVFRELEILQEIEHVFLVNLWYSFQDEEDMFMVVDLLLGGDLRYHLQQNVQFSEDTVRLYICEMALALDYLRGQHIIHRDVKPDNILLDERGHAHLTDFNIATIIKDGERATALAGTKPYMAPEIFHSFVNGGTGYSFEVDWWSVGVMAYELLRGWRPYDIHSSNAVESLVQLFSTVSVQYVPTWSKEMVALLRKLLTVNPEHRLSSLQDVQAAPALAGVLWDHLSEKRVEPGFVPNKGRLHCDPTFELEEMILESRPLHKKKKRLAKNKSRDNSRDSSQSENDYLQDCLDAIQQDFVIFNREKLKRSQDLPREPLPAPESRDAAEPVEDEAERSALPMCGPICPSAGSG
Method in brief: as §1

T1 sequence (Q04771 21-509): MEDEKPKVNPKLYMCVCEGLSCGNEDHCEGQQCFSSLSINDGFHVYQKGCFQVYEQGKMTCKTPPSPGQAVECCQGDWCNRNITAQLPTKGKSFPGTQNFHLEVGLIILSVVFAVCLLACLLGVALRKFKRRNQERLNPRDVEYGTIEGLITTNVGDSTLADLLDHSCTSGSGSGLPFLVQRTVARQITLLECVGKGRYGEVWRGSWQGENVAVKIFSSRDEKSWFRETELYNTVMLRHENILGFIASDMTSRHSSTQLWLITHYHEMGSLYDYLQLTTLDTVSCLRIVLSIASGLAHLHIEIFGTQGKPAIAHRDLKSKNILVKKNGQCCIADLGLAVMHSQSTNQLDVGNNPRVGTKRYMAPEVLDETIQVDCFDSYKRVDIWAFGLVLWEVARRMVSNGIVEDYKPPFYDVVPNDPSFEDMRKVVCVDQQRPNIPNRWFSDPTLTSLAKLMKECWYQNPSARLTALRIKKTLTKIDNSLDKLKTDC

Cc1ccc(C2=Nc3cccnc3S(=O)(=O)c3ccccc32)cc1 [TBPT, 6-(p-tolyl)benzo[f] pyrido[2,3-b][1,4] thiazepine 11,11-dioxide]
98%: remaining binding at 5 µM (ADCK3; 5 μM) | remaining binding at 5 µM (CSNK1D; 5 μM)
88%: remaining binding at 5 µM (YANK3; 5 μM)
94%: remaining binding at 10 µM (EPHA1; 10 μM) | remaining binding at 5 µM (LRRK2; 5 μM) | remaining binding at 10 µM (PIP5K1C; 10 μM)
75%: remaining binding at 10 µM (PLK3; 10 μM)
74%: remaining binding at 10 µM ([1]; 10 μM)
84%: remaining binding at 10 µM (VEGFR2; 10 μM)
100%: remaining binding at 5 µM (ACVR1; 5 μM) | remaining binding at 10 µM (ACVR1; 10 μM) | remaining binding at 10 µM (ADCK3; 10 μM) | remaining binding at 5 µM (ASK1; 5 μM) | remaining binding at 10 µM (ASK1; 10 μM) | remaining binding at 5 µM (CHEK1; 5 μM) | remaining binding at 10 µM (CHEK1; 10 μM) | remaining binding at 5 µM (CSNK1E; 5 μM) | remaining binding at 5 µM (CSNK1G2; 5 μM) | remaining binding at 10 µM (CSNK1G2; 10 μM) | remaining binding at 5 µM (DAPK3; 5 μM) | remaining binding at 10 µM (DAPK3; 10 μM) | remaining binding at 5 µM (EPHA1; 5 μM) | remaining binding at 5 µM (ERBB2; 5 μM) | remaining binding at 10 µM (ERBB2; 10 μM) | remaining binding at 5 µM (ERK3; 5 μM) | remaining binding at 10 µM (ERK3; 10 μM) | remaining binding at 10 µM (HPK1; 10 μM) | remaining binding at 10 µM (LRRK2; 10 μM) | remaining binding at 5 µM (MEK3; 5 μM) | remaining binding at 10 µM (MEK3; 10 μM) | remaining binding at 10 µM (MLK2; 10 μM) | remaining binding at 10 µM (MST2; 10 μM) | remaining binding at 10 µM (NEK1; 10 μM) | remaining binding at 5 µM (PIP5K1C; 5 μM) | remaining binding at 5 µM ([1]; 5 μM) | remaining binding at 5 µM ([2]; 5 μM) | remaining binding at 5 µM (VRK2; 5 μM)
92%: remaining binding at 10 µM (MRCKB; 10 μM)
82%: remaining binding at 10 µM ([2]; 10 μM)
97%: remaining binding at 10 µM (FGFR4; 10 μM) | remaining binding at 10 µM (PIK3CA(E542K); 10 μM)
63%: remaining binding at 5 µM (MST2; 5 μM)
90%: remaining binding at 10 µM (CSNK1D; 10 μM) | remaining binding at 5 µM (NEK1; 5 μM)
70%: remaining binding at 5 µM (MLK2; 5 μM)
93%: remaining binding at 5 µM (HPK1; 5 μM) | remaining binding at 5 µM (PIK3CA(E542K); 5 μM) | remaining binding at 10 µM (TAK1; 10 μM)
69%: remaining binding at 10 µM (VRK2; 10 μM)
87%: remaining binding at 5 µM (TAK1; 5 μM) | remaining binding at 5 µM (TESK1; 5 μM)
89%: remaining binding at 5 µM (MRCKB; 5 μM)
95%: remaining binding at 5 µM (PLK3; 5 μM) | remaining binding at 10 µM (TESK1; 10 μM) | remaining binding at 5 µM (VEGFR2; 5 μM)
96%: remaining binding at 10 µM (CSNK1E; 10 μM) | remaining binding at 5 µM (FGFR4; 5 μM) | remaining binding at 10 µM (YANK3; 10 μM)
